According to ChEMBL document CHEMBL4354815, “Fibrinolysis Inhibitors: Potential Drugs for the Treatment and Prevention of Bleeding” (J Med Chem, 2020):
Values belong to the molecule of their own block, whether it stands above or below them.

Legend:
[1] = target: T1, Plasminogen (Homo sapiens, UniProt P00747); experiment: Inhibition of plasmin (unknown origin)
[2] = target: Urokinase-type plasminogen activator (Homo sapiens, UniProt P00749); experiment: Inhibition of urokinase-type plasminogen activator (unknown origin)
[3] = system: Plasma; experiment: Anti-fibrinolytic activity in 5% human plasma in presence of fibrinogen by spectrophotometric method; format: functional, cell-free
[4] = target: T1, Plasminogen; experiment: Inhibition of microplasmin (unknown origin) expressed in Pichia pastoris preincubated for 10 mins followed by S2251 substrate addition
[5] = target: T1, Plasminogen; experiment: Inhibition of human plasmin preincubated for 15 mins followed by MeOSuc-Ala-Phe-Lys-AMC substrate addition and measured after 30 mins by fluorescence method
[6] = target: T2, Plasma kallikrein (Homo sapiens, UniProt P03952); experiment: Inhibition of human plasma kallikrein preincubated for 15 mins followed by H-Pro-Phe-Arg-AMC substrate addition and measured after 30 mins by fluorescence method
T2 sequence (P03952 20-390 limits assumed): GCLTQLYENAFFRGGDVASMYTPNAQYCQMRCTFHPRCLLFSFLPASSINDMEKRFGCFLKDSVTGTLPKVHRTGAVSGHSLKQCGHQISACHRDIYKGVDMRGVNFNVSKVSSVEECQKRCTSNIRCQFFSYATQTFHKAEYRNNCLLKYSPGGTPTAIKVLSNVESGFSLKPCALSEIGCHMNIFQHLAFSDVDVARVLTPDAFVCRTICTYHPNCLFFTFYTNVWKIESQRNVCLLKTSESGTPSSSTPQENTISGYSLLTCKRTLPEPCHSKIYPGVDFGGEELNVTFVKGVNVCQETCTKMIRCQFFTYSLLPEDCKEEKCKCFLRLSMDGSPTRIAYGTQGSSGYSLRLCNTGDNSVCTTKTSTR
T2 sequence (P03952 391-638 limits assumed): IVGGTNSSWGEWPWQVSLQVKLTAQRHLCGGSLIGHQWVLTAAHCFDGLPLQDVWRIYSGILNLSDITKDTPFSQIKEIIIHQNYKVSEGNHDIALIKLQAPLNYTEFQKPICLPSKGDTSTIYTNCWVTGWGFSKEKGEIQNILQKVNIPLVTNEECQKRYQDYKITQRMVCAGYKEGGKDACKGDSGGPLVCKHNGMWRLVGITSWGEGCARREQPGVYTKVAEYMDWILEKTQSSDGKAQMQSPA

[7] = target: Coagulation factor XI (Homo sapiens, UniProt P03951); experiment: Inhibition of human factor 11a preincubated for 15 mins followed by Boc-Glu (OBzl) -Ala-Arg-AMC and measured after 30 mins by fluorescence method
Chain of Coagulation factor XI (P03951 19-387 limits assumed): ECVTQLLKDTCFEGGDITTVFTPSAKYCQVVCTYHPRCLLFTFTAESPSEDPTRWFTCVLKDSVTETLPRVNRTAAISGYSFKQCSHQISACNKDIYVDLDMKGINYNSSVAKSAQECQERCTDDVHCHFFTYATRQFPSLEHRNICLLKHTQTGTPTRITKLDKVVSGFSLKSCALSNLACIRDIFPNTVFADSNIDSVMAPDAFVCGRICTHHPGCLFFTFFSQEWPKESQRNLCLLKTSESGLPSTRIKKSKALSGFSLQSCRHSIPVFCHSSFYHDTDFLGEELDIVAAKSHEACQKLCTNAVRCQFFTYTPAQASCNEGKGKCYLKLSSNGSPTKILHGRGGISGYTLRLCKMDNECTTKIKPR
Chain of Coagulation factor XI (P03951 388-625 limits assumed): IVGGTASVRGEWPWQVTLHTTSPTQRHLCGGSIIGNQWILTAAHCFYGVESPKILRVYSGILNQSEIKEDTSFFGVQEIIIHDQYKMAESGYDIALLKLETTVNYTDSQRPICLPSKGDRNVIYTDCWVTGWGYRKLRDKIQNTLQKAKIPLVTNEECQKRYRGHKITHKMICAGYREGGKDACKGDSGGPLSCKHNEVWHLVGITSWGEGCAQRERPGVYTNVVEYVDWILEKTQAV

[8] = target: T1, Plasminogen; experiment: Inhibition of human plasmin using tosyl-Gly-Pro-Lys-pNA as substrate after 10 mins by UV/Vis photometry
[9] = target: T2, Plasma kallikrein; experiment: Inhibition of human plasma kallikrein using S2302 as substrate after 10 mins by UV/Vis photometry
[10] = target: T1, Plasminogen; experiment: Inhibition of plasmin (unknown origin) assessed as reduction in amidolytic activity using S-2251 as the substrate after 4 mins
[11] = compound: CC[C@@H](C)[C@@H](N)C(=O)N[C@@H](Cc1ccccc1)C(=O)N[C@@H](CCCCN)C(=O)Nc1ccc([N+](=O)[O-])cc1; experiment: (§1) Inhibition of human plasmin assessed as km by Lineweaver-burk method
[12] = compound: NCCCC[C@H](NC(=O)[C@H](Cc1ccccc1)NC(=O)[C@@H]1CCC(=O)N1)C(=O)Nc1ccc([N+](=O)[O-])cc1; experiment: as §1

Molecule: N=C(N)c1ccc(CNC(=O)[C@H](CCc2ccccc2)NC(=O)[C@@H](CO)NS(=O)(=O)Cc2ccccc2)cc1
Ki [1]: 36 nM | Ki [2]: 28 nM

Molecule: C#Cc1cccc2nn3c(C4CCNCC4)cc(=O)[nH]c3c12
IC50 [3]: 10 nM

Molecule: CCCCCCCCNC(=O)[C@H](Cc1ccc(OCc2ccc3ccccc3n2)cc1)NC(=O)[C@H]1CC[C@H](CN)CC1
IC50 [4]: 380 nM

Molecule: N=C(N)c1ccc(CNC(=O)[C@H](Cc2cccc(CN)c2)NC(=O)[C@@H](Cc2ccc3ccccc3c2)NS(=O)(=O)Cc2ccccc2)cc1
Ki [8]: 1.1 nM | Ki [9]: 0.1 nM

Molecule: NCCCCCC(=O)N[C@@H](CCCCN)C(=O)Nc1ccc(C(=O)c2ccccc2)cc1
IC50 [10]: 12000 nM

Molecule: NC[C@H]1CC[C@H](C(=O)N[C@@H](CCCCNC(=O)OCc2ccccc2)C(=O)COc2ccc(C(=O)c3ccccc3)cc2)CC1
IC50 [10]: 200000 nM

B1: Plasminogen (Homo sapiens), P00747 (protein)
chain: MEHKEVVLLLLLFLKSGQGEPLDDYVNTQGASLFSVTKKQLGAGSIEECAAKCEEDEEFTCRAFQYHSKEQQCVIMAENRKSSIIIRMRDVVLFEKKVYLSECKTGNGKNYRGTMSKTKNGITCQKWSSTSPHRPRFSPATHPSEGLEENYCRNPDNDPQGPWCYTTDPEKRYDYCDILECEEECMHCSGENYDGKISKTMSGLECQAWDSQSPHAHGYIPSKFPNKNLKKNYCRNPDRELRPWCFTTDPNKRWELCDIPRCTTPPPSSGPTYQCLKGTGENYRGNVAVTVSGHTCQHWSAQTPHTHNRTPENFPCKNLDENYCRNPDGKRAPWCHTTNSQVRWEYCKIPSCDSSPVSTEQLAPTAPPELTPVVQDCYHGDGQSYRGTSSTTTTGKKCQSWSSMTPHRHQKTPENYPNAGLTMNYCRNPDADKGPWCFTTDPSVRWEYCNLKKCSGTEASVVAPPPVVLLPDVETPSEEDCMFGNGKGYRGKRATTVTGTPCQDWAAQEPHRHSIFTPETNPRAGLEKNYCRNPDGDVGGPWCYTTNPRKLYDYCDVPQCAAPSFDCGKPQVEPKKCPGRVVGGCVAHPHSWPWQVSLRTRFGMHFCGGTLISPEWVLTAAHCLEKSPRPSSYKVILGAHQEVNLEPHVQEIEVSRLFLEPTRKDIALLKLSSPAVITDKVIPACLPSPNYVVADRTECFITGWGETQGTFGAGLLKEAQLPVIENKVCNRYEFLNGRVQSTELCAGHLAGGTDSCQGDSGGPLVCFEKDKYILQGVTSWGLGCARPNKPGVYVRVSRFVTWIEGVMRNN
Km [11]: 20 µM | Km [12]: 300 µM

Results, then the molecule that gave them:

IC50 [5]: 2.1 nM | IC50 [6]: 0.7 nM | IC50 [7]: 6.5 nM
Molecule: Cc1cc2c(=O)c(C(=O)O)c[nH]c2cc1-c1ccc(C[C@H](NC(=O)[C@H]2CC[C@H](CN)CC2)C(=O)Nc2cc(Cl)c3[nH]c(=O)[nH]c3c2)cc1

IC50 [3]: 85 nM
Molecule: O=C(NCc1ccco1)Nc1cccc2nn3c(C4CCNCC4)cc(=O)[nH]c3c12

IC50 [3]: 10 nM
Molecule: CCc1ccc(C(=O)Nc2cccc3nn4c(C5CCNCC5)cc(=O)[nH]c4c23)cc1

Ki [8]: 0.48 nM | Ki [9]: 0.6 nM
Molecule: N=C(N)c1ccc(CNC(=O)[C@H](CCc2ccncc2)NC(=O)[C@@H](CCCc2ccccc2)NS(=O)(=O)Cc2ccccc2)cc1

IC50 [3]: 8 nM
Molecule: CCC(C)C(=O)c1cnn2c(C3CCNCC3)cc(=O)[nH]c12 (centres undefined)

IC50 [10]: 660000 nM
Molecule: NCCCC[C@H](NC(=O)[C@H]1CC[C@H](CN)CC1)C(=O)NCOc1ccc(C(=O)c2ccccc2)cc1
